Results published in patent US20250312310A1, “Beta2-adrenergic receptor antagonists for use in treating diabetes or obesity” (NovelYeast bv, priority 2021, published 2025).
Entries after “also recorded” stand apart in the source; their conditions may differ. Read-outs that look alike come from different tables or passages of the source. Blank lines part the entries; values can stand above or below the compound they belong to. The star is where a group is joined. Myristoyl = CCCCCCCCCCCCCC(=O)*

What was measured:
human β2-AR [1] = molecular target: T1, human β2-AR (Homo sapiens, UniProt P07550); assay: Calcium response (Fluo-4) in Flp-In-293 cells stably transfected with ADRB2 and GNA15; type: cell-based; conditions: for Activation of the β2-AR by sugars (calcium response): sugars at 50 mM, listed in order of decreasing intensity
[2] = tested on: everted sacs prepared from rat intestine; assay: Glucose uptake into everted sacs of rat intestine; conditions: for Effect on basal glucose transport: ICI 118,551 10 μM with 2.5 mM glucose; for Effect on basal glucose transport / Effect on epinephrine stimulation of glucose uptake: colchicine 5 μM; for Inhibition of the stimulation of glucose transport by mannose: LX4211 2 μM (also inhibits glucose transport itself); for Inhibition of the stimulation of glucose transport by mannose / Effect on epinephrine stimulation of glucose uptake: ICI 118,551 10 μM; for Effect on epinephrine stimulation of glucose uptake: epinephrine 10 μM, mPKI 1 μM
Procedure: Rats weighing around 150 g were fasted overnight before the experiment, and euthanized by cervical dislocation on the day of the experiment. The abdomen was opened by a midline incision, and a segment of around 35 cm of proximal intestine was isolated. The intestinal segment was rinsed with ice-cold Ringer solution (composition (mM): 140 NaCl, 5 KCl, 1 MgCl2, 2 CaCl2, 10 HEPES, 10 TRIS, gassed with 95% O2 and 5% CO2, pH 7.4), and 4-7 everted sacs were prepared, each approximately 3 cm in length, by tying off the ends of the intestinal segments with threads (46). The sacs were filled with Ringer solution containing 5 mM mannitol (Sigma Aldrich) (to maintain osmotic balance) and L-glutamine (2 mM) (Sigma Aldrich) (as an energy source). Each everted sac was transferred to a separate glass beaker containing 50 mL continuously oxygenated Ringer solution with L-glutamine (2 mM), and maintained in a water bath at 37° C. Then, epinephrine 10 μM (Sigma Aldrich), mannose 5 mM (Sigma Aldrich), ICI 118,551 10 μM (Sigma Aldrich), phlorizin 100 μM (Sigma Aldrich), LX4211 2 μM (MedKoo Biosciences, Inc. USA.) or Ringer solution were added to the respective beaker for a 15-min pre-incubation (concentrations indicate final concentrations of the compounds). For the sacs treated with ICI 118,551, phlorizin or LX 4211, the inhibitors were added before mannose or epinephrine. After pre-incubation, 5 mM glucose, or 2.5 mM glucose for the ICI 118,551 control experiment, was added to the external buffer to initiate glucose transport. […] These samples were analyzed using a glucose assay kit based on glucose oxidase (Sigma Aldrich, for details, see below). […] Also for colchicine, a TRIS-free Ringer solution was used, as TRIS interferes with colchicine activity (130). […] We noticed that it was important to take certain precautions during these experiments: the intestine was never allowed to overfill and be stretched while rinsing the intestinal lumen at the time of isolation and filling the everted sac with Ringer solution. Trapping air bubbles inside the everted sac was avoided. Also, the regions of the intestine where mucus was still present were not used for preparing everted sacs. […] The glucose concentration of the samples was assayed by a glucose assay kit (Sigma Aldrich, GOD/POD method). The assay procedure recommended by the kit was modified for small sample volumes as follows. Fifty μL of sample was transferred to a well of a 96-well plate, and at time zero, the reaction was started by adding 100 μL of assay reagent to the first well, and mixing. Each well was allowed to react for exactly 30 min at 37° C. The reaction was stopped by adding 100 μL of 12 N H2SO4 (Merck) into each well, and carefully mixing. The absorbance was measured at 540 nm with a plate reader (Tecan 200).

[3] = Caco-2 permeability assay; type: in vitro ADME, human; conditions: human; for Papp A→B / Papp B→A: Caco-2, pH 7.4; for Papp at 1 μM: summary, read-out: Permeability in Caco2 assay; for recovery at 1 μM: Caco-2, pH 7.4, Caco-2, 1.0 μM
Description: (§1) Caco-2 cell permeability data of compound CD3-403 (apical to basal (A-B) and basal to apical (B-A), measured at pH 7.4 in both apical and basal compartment)

Caco-2 cells = assay: Caco-2 permeability assay; type: in vitro ADME, human
Description: as §1

human β2-AR [4] = molecular target: T1, human β2-AR; conditions: Xenopus oocytes, CFTR readout
[5] = tested on: HEK-293 cells (endogenous β2-AR); conditions: 1 μM epinephrine
[6] = In vivo oral glucose tolerance test; parameters: species or system rat; conditions: rats
Procedure: Animals and diet. All the experiments were approved by the ethical committee on animal experimentation of the KU Leuven. Wistar rats (Harlan Netherlands B.V.) were maintained on a 12 h light-12 h dark cycle, and fed with standard rat food chow and water ad libitum. The oral glucose tolerance test was performed on normal rats weighing around 250 g, which were fasted for 16 h before the test. Blood was sampled by tail vein puncture, and the blood glucose level was measured by glucometer (Verio OneTouch glucometer). Rats were divided in four groups: one with glucose 2 g/kg or glucose 4 g/kg (Sigma Aldrich), both in the presence or absence of CD3-403. […] Glucose or glucose along with CD3-403, dissolved in 0.9% saline, was administered to rats by oral gavage in the respective groups. […] All experiments were conducted around the same time in the morning.

[7] = concentration response curve, 1st experiment, read-out: IC50 (nM) 1st experiment
[8] = concentration response curve, 2nd experiment, read-out: IC50 (nM) 2nd experiment
[9] = summary of screening, read-out: IC50
[10] = Caco-2, test concentration 1.0E−06 M
[11] = second CD3 compounds overview table, epinephrine 5 nM, read-out: IC50
[12] = Caco-2, 1.0 μM, pH 7.4 in both compartments
[13] = Rattus norvegicus, 1.25 h, phlorizin 100 μM, LX4211 2 μM, glucose accumulated after 75 min

Compound: Cc1ccc(OCC(O)C(C)NC(C)C)c2c1CCC2 (centres unmarked) [ICI 118,551]
Effect on basal glucose transport [2]: did not have any effect
Inhibition of the stimulation of glucose transport by mannose [2]: abolished
Effect on epinephrine stimulation of glucose uptake ([2]; phlorizin 100 μM): completely prevented

Compound: O=CC[C@@H](O)[C@H](O)[C@H](O)CO [2 deoxy-D-glucose]
Activation of the β2-AR by sugars (calcium response) (human β2-AR [1]): activated

Compound: CC(C)NC[C@@H](O)COc1cccc2[nH]cc(CC(=O)N(C)C)c12 [CD3-T3]
IC50 (human β2-AR [1]; [7]): 66 nM
IC50 (human β2-AR [1]; [8]): 78 nM
IC50 (human β2-AR [1]; [9]): 78 nM
Papp A→B ([3]; test concentration 1.0E−06 M): 0.1 ×10⁻⁶ cm/s
Papp B→A ([3]; test concentration 1.0E−06 M): 3.2 ×10⁻⁶ cm/s
Papp at 1 μM ([3]; Caco-2): 0.1 ×10⁻⁶ cm/s
efflux ratio at 1 µM [3, 10]: 32
MeanRecovery (A-B) (Caco-2 cells; test concentration 1.0E−06 M): 76%
MeanRecovery (B-A) (Caco-2 cells; test concentration 1.0E−06 M): 90%

Compound: COc1ccc(OC)c(C(O)C(C)NC(C)(C)C)c1 (centres unmarked) [Butoxamine, reference compound]
IC50 (human β2-AR [1]; [11]): 14300 nM

Compound: Myristoylated PKI 14-22 amide (Myristoyl-GRTGRRNAI-NH2; SMILES CCCCCCCCCCCCCC(=O)NCC(=O)N[C@@H](CCCNC(=N)N)C(=O)N[C@H](C(=O)NCC(=O)N[C@@H](CCCNC(=N)N)C(=O)N[C@@H](CCCNC(=N)N)C(=O)N[C@@H](CC(N)=O)C(=O)N[C@@H](C)C(=O)N[C@H](C(N)=O)[C@@H](C)CC)[C@@H](C)O; UniProt P61925 15-23, looked up, fragment)
Effect on epinephrine stimulation of glucose uptake ([2]; phlorizin 100 μM): partially inhibited

Compound: CNC[C@H](O)c1ccc(O)c(O)c1 [epinephrine]
Glucose accumulated after 10 min in the sac ([2]; epinephrine 10 μM in external medium, 5 mM glucose, without epinephrine 440±132): 833 ± 255 µM
Activation of the β2-AR (inward current and conductance) (human β2-AR [4]): activated
Calcium response in non-transfected HEK-293 cells [5]: failed to show a calcium response
Calcium response in non-transfected HEK-293 cells ([5]; listed as Epinephrine): did not elicit a calcium response

Compound: CC(C)(C)NC[C@@H](O)COc1cccc2[nH]cc(CC(N)=O)c12 [CD3-403]
IC50 (human β2-AR [1]; 5 nM epinephrine, read-out: IC50 of the calcium response elicited by 5 nM epinephrine): 46 nM
IC50 (human β2-AR [1]; [7]): 221 nM
IC50 (human β2-AR [1]; [8]): 46 nM
IC50 (human β2-AR [1]; concentration response curve, old stock, read-out: IC50 (nM) old stock): 40 nM
% INHIBITION (human β2-AR [1]; second CD3 compounds overview table, epinephrine 5 nM): 97%
IC50 (human β2-AR [1]; [11]): 40 nM
IC50 (human β2-AR [1]; [9]): 46 nM
Area under the curve (AUC) of the glucose increase ([6]; glucose 2 g/kg, 100% as baseline, mean±SD, control 8056±2990): 5907±2195
Increase in blood glucose level after oral glucose bolus ([6]; oral gavage, glucose 2 g/kg, 5 μM (0.05 mg/kg) CD3-403): reduced increase in blood glucose level, which was significant at 60 min
Blood glucose concentration after oral glucose bolus ([6]; oral gavage, glucose 4 g/kg, 5 μM (0.05 mg/kg) CD3-403): trend of decreased glucose concentration
recovery at 1 μM ([3]; pH 7.4 in both compartments, read-out: Mean Recovery (A-B)): 83%
recovery at 1 μM ([3]; pH 7.4 in both compartments, read-out: Mean Recovery (B-A)): 94%
Papp A→B ([3]; test concentration 1.0E−06 M): 0.4 ×10⁻⁶ cm/s
Papp B→A ([3]; test concentration 1.0E−06 M): 1.3 ×10⁻⁶ cm/s
Papp at 1 μM ([3]; Caco-2): 0.4 ×10⁻⁶ cm/s
efflux ratio at 1 µM ([3]; Caco-2, 1.0 μM, B-A/A-B): 3.25
Papp A→B at 1 μM [3, 12]: 0.4 ×10⁻⁶ cm/s
Papp B→A at 1 μM [3, 12]: 1.3 ×10⁻⁶ cm/s
Cell permeability (Caco-2 cells; assessed by a Caco-2 permeability assay): very low cell permeability
Efflux (Caco-2 cells; test concentration 1.0E−06 M): 3.25
MeanRecovery (A-B) (Caco-2 cells; test concentration 1.0E−06 M): 83%
MeanRecovery (B-A) (Caco-2 cells; test concentration 1.0E−06 M): 94%

Compound: O=C(CCc1ccc(O)cc1)c1c(O)cc(O)cc1O[C@@H]1O[C@H](CO)[C@@H](O)[C@H](O)[C@H]1O [phlorizin]
inhibition at 100 µM [2, 13]: > 90%
Effect on epinephrine stimulation of glucose uptake ([2]; phlorizin 100 μM): inhibited both basal and enhanced glucose uptake

Compound: CC(C)(C)NCC(O)COc1cccc2[nH]cc(CC(=O)NN)c12 (racemic) [CD3 X]
IC50 (human β2-AR [1]; [9]): 70 nM
Permeability class in Caco2 assay (Caco-2 cells; summary): low permeability

Compound: CCOc1ccc(Cc2cc([C@@H]3O[C@H](SC)[C@@H](O)[C@H](O)[C@H]3O)ccc2Cl)cc1 [LX4211]
Inhibition of the stimulation of glucose transport by mannose [2]: completely inhibited
inhibition at 2 µM [2, 13]: > 90%

Compound: Cc1c[nH]c2cccc(OC[C@H](O)CNC(C)(C)C)c12 [CD3-T1]
IC50 (human β2-AR [1]; [7]): 6 nM
IC50 (human β2-AR [1]; [8]): 0.6 nM
IC50 (human β2-AR [1]; [9]): 6 nM
Papp A→B ([3]; test concentration 1.0E−06 M): 54.7 ×10⁻⁶ cm/s
Papp B→A ([3]; test concentration 1.0E−06 M): 17.8 ×10⁻⁶ cm/s
Papp at 1 μM ([3]; Caco-2): 54.7 ×10⁻⁶ cm/s
efflux ratio at 1 µM [3, 10]: 0.325
MeanRecovery (A-B) (Caco-2 cells; test concentration 1.0E−06 M): 71%
MeanRecovery (B-A) (Caco-2 cells; test concentration 1.0E−06 M): 87%

Compound: COc1cc2c(c(OC)c1OC)-c1ccc(OC)c(=O)cc1[C@@H](NC(C)=O)CC2 [Colchicine]
Effect on basal glucose transport [2]: not basal glucose uptake
Effect on epinephrine stimulation of glucose uptake ([2]; phlorizin 100 μM): completely blocked

The next lines start with the values.

Inhibition of the epinephrine response (human β2-AR [1]; 200 μM antagonist, 20 nM epinephrine): Inhibition
Inhibition of sugar responses (human β2-AR [1]; 200 μM antagonist, 70 mM sugar): inhibited; also recorded: Inhibition
Block of the calcium response to epinephrine (human β2-AR [1]; Flp-In-293 β2-AR/Gα16 cells, Fluo4 fluorescence (FIG. 2a)): blocked
Compound: CC(C)(C)NCC(O)COc1cccc2c1CC(O)C(O)C2 (centres unmarked) [nadolol, reference compound]

Activation of the β2-AR by sugars (calcium response) (human β2-AR [1]): activated
Compound: O=C(CO)[C@@H](O)[C@H](O)[C@H](O)CO [fructose]

Activation of the β2-AR by sugars (calcium response) (human β2-AR [1]): activated
Compound: OC[C@H]1O[C@H](O[C@H]2O[C@H](CO)[C@@H](O)[C@H](O)[C@H]2O)[C@H](O)[C@@H](O)[C@@H]1O [trehalose]

Activation of the β2-AR by sugars (calcium response) (human β2-AR [1]): very little effect
Compound: N[C@H]1C(O)O[C@H](CO)[C@@H](O)[C@@H]1O (some centres unmarked) [Glucosamine]

Activation of the β2-AR by sugars (calcium response) (human β2-AR [1]): activated
Compound: O=C[C@H](O)[C@@H](O)[C@H](O)CO [xylose]

EC50 (human β2-AR [1]; calcium response (FIG. 2d)): ~10000 µM
Activation of the β2-AR by sugars (calcium response) (human β2-AR [1]): activated
Compound: maltotriose

Activation of the β2-AR by sugars (calcium response) (human β2-AR [1]): activated
Compound: OC[C@H]1O[C@H](O[C@H]2[C@H](O)[C@@H](O)C(O)O[C@@H]2CO)[C@H](O)[C@@H](O)[C@@H]1O (mixture of isomers) [maltose]
